From patent publication US20080261994A1, “CYCLOPROPANE COMPOUNDS AND PHARMACEUTICAL USE THEREOF” (Japan Tobacco Inc., priority 2003, published 2008)
Like-named read-outs stand apart in the source and are kept apart here.

Experiments:
Assay type in all cases: biochemical
[1] = biological target: T1, Recombinant Human MMP-13 (Homo sapiens, UniProt P45452); assay: MMP-13 inhibitory activity (MMP-13 specific fluorescent substrate with quencher)
T1 construct: purchased R&D systems 511-MM
Method: Inhibitory activity of tested compounds on MMP-13 was measured using MMP-13 specific fluorescent substrate with quencher.
The enzyme and substrate were diluted with Tris-HCl buffer, and test compounds were diluted with dimethyl sulfoxide (DMSO).
Test compounds and the enzyme (Recombinant Human MMP-13: R&D systems, 511-MM) were added into 96-well plate. The reaction was initiated by adding synthetic substrate (7-MCA-Pro-CHA-Gly-NVal-His-Ala-DPA: enzyme systems products, Met-06) into the plate. After incubation at 25° C. for 1 h, the reaction was terminated by addition of reaction terminating solution containing acetic acid. Fluorescence intensity of each well was measured (Ex: 325 nm, […] 405 nm) and the MMP-13 inhibitory activity of the compound in each well (%) was calculated based on the values of enzyme-free well and inhibitor-free well. The inhibitory activity of the compound was represented as IC50 (μM).

[2] = biological target: T2, MMP-1 (Homo sapiens, UniProt P03956); assay: MMP-1 inhibitory action (Type I collagen Activity Measurement kit, FITC-labeled collagen type I)
T2 sequence (P03956 100-469): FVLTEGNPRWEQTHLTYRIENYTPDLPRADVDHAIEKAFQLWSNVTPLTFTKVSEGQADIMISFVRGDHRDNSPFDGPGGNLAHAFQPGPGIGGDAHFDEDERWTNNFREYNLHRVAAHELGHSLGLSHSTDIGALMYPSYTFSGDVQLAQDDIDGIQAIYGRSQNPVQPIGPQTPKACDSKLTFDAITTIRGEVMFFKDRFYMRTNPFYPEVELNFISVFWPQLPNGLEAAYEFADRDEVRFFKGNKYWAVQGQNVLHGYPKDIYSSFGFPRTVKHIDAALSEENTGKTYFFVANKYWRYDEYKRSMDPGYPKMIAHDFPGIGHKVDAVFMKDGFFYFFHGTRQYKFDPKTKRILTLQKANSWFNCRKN

[3] = biological target: T3, aggrecanase-1 (Homo sapiens, UniProt O75173); assay: Aggrecanase-1 inhibitory action (Particle Assay, GAG release from aggrecan-containing polyacrylamide particles)
T3 sequence (O75173 213-837): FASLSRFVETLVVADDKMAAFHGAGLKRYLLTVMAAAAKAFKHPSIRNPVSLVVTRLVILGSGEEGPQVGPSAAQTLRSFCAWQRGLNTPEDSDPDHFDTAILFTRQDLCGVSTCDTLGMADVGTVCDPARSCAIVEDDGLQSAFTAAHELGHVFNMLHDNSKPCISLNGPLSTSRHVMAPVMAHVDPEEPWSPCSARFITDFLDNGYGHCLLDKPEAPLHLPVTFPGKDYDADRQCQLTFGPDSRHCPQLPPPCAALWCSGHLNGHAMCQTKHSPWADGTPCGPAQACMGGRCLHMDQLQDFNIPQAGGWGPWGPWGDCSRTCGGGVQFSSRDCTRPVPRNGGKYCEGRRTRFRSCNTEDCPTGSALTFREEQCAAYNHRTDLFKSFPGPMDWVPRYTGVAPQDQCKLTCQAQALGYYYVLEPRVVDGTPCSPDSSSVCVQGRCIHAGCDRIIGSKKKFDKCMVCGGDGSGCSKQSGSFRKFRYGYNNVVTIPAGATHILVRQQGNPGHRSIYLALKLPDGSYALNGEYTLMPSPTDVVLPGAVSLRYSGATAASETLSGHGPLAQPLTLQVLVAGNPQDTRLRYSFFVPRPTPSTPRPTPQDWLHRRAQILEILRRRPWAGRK
How it was run: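 Readout was dimethylmethylene blue absorbance (595 nm) of glycosaminoglycan liberated into supernatant, calibrated with whale chondroitin sulfate. Substrate was aggrecan in polyacrylamide particles, digested 15 h at 37° C in Tris-HCl; TC50 (μM) derived from inhibition relative to no-enzyme and no-inhibitor controls.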

[4] = Recombinant Human MMP-13, fluorescent substrate, 25° C. for 1 h, read-out: IC50 MMP13 (Experimental Example 3)
[5] = MMP-1 inhibitory action, FITC-labeled collagen type I, 37° C. for 3 hr, read-out: IC50 MMP1 (Experimental Example 2)
[6] = aggrecanase-1 inhibitory action, read-out: IC50 AG1 (Experimental Example 1)
[7] = Experimental Example 3, read-out: IC50 MMP13
[8] = Experimental Example 2, read-out: IC50 MMP1
[9] = Experimental Example 1, read-out: IC50 AG1

Row | SMILES | IC50 [1, 4] [nM] | IC50 [2, 5] [nM] | IC50 [3, 6] [nM] | IC50 [1, 7] [nM] | IC50 [2, 8] [nM] | IC50 [3, 9] [nM]
1 | CC1(c2ccc(F)cc2)CC1(NS(=O)(=O)c1ccc(-c2cc(C(F)(F)F)on2)s1)C(=O)O (stereo not drawn) [Example 2-339] | – | – | – | < 1000 | ≥ 1000 | < 100
2 | C[C@]1(c2ccccc2)C[C@@]1(NS(=O)(=O)c1ccc(-c2cccnc2)s1)C(=O)O [Example 2-527] | – | – | – | ≥ 1000 | ≥ 1000 | ≥ 1000
3 | CC1[C@H](c2ccccc2)[C@]1(NS(=O)(=O)N1CCN(c2nc3ccccc3o2)CC1)C(=O)O (stereo partly drawn) [Example 2-464] | – | – | – | ≥ 1000 | ≥ 10000 | ≥ 1000
4 | CN(C)C(=O)Cc1ccc([C@@H]2C[C@]2(NS(=O)(=O)c2ccc(-c3cc(C(F)(F)F)on3)s2)C(=O)O)cc1 [Example 2-290] | – | – | – | < 100 | < 1000 | < 100
5 | O=C(O)C1(NS(=O)(=O)c2ccc(-c3ccc(Cl)cc3)s2)CC1c1ccccc1Oc1cccnc1 (stereo not drawn) [Example 2-24] | < 1000 | ≥ 10000 | < 1000 | – | – | –
6 | O=C(OCCCc1ccccc1C1CC1(NS(=O)(=O)c1ccc(-c2cc(C(F)(F)F)on2)s1)C(=O)O)N1CCC[C@H]1CO (stereo partly drawn) [Example 2-254] | < 100 | ≥ 1000 | < 100 | – | – | –
7 | CNC(=O)[C@]1(NS(=O)(=O)c2ccc(-c3cc(C(F)(F)F)on3)s2)C(C)[C@@H]1c1ccccc1 (stereo partly drawn) [Example 2-297] | – | – | – | ≥ 1000 | ≥ 10000 | ≥ 1000
8 | NC(=O)OCC1(c2ccccc2)CC1(NS(=O)(=O)c1ccc(-c2cc(C(F)(F)F)on2)s1)C(=O)O (stereo not drawn) [Example 2-335] | – | – | – | < 1000 | ≥ 1000 | < 1000
9 | O=C(NC1CC1)OCC1(c2ccccc2)CC1(NS(=O)(=O)c1ccc(-c2cc(C(F)(F)F)on2)s1)C(=O)O (stereo not drawn) [Example 2-331] | – | – | – | < 1000 | ≥ 1000 | < 1000
10 | CN1CCN(C(=O)Cc2ccccc2C2CC2(NS(=O)(=O)c2ccc(-c3ccc(Cl)cc3)s2)C(=O)O)CC1 (stereo not drawn) [Example 2-195] | < 1000 | ≥ 10000 | < 1000 | – | – | –
11 | CN(C)C(=O)CSCC1(c2ccccc2)CC1(NS(=O)(=O)c1ccc(-c2ccc(Cl)cc2)s1)C(=O)O (stereo not drawn) [Example 2-357] | – | – | – | < 100 | ≥ 1000 | < 100

Further lines, results first:

Row | IC50 [1, 4] [nM] | IC50 [2, 5] [nM] | IC50 [3, 6] [nM] | IC50 [1, 7] [nM] | IC50 [2, 8] [nM] | IC50 [3, 9] [nM] | SMILES
12 | ≥ 10000 | ≥ 10000 | ≥ 10000 | – | – | – | Cc1ncc(-c2ccc(S(=O)(=O)NC3(C(=O)O)CC3c3ccccc3)s2)o1 (stereo not drawn) [Example 2-79]
13 | < 100 | ≥ 1000 | < 100 | – | – | – | O=C(O)[C@]1(NS(=O)(=O)c2ccc3c(c2)Cc2cc(Br)ccc2-3)C[C@@H]1c1ccccc1 [Example 1-91]
14 | ≥ 10000 | ≥ 10000 | ≥ 10000 | – | – | – | O=C(O)C1(CS(=O)(=O)c2ccc(-c3ccc(Cl)cc3)s2)CC1c1ccccc1 (stereo not drawn) [Example 2-187]
15 | < 100 | ≥ 1000 | < 100 | – | – | – | O=C(O)C1(NS(=O)(=O)c2ccc(-c3ccc(Cl)cc3)s2)CC1c1cccc(NCc2cccnc2)c1 (stereo not drawn) [Example 1-129]
16 | < 1000 | ≥ 10000 | < 100 | – | – | – | O=C(O)C1(NS(=O)(=O)c2ccc(-c3ccc(Cl)cc3)s2)CC1c1cccc(Oc2cccnc2)c1 (stereo not drawn) [Example 1-88]
17 | ≥ 1000 | ≥ 10000 | ≥ 1000 | – | – | – | CC(=O)c1ccc(S(=O)(=O)NC2(C(=O)O)CC2c2ccccc2)s1 (stereo not drawn) [Example 2-66]
18 | ≥ 10000 | ≥ 10000 | ≥ 10000 | – | – | – | O=C(O)[C@]1(NS(=O)(=O)/C=C/c2cccc(C(F)(F)F)c2)C[C@@H]1c1ccccc1 [Example 2-162]
19 | < 1000 | ≥ 10000 | ≥ 1000 | – | – | – | O=C(O)[C@]1(NS(=O)(=O)c2ccc(-c3noc4c3CCCC4)s2)C[C@@H]1c1ccccc1 [Example 2-154]
20 | ≥ 1000 | ≥ 10000 | ≥ 1000 | – | – | – | COC(=O)N1CC=C(c2ccc(S(=O)(=O)N[C@@]3(C(=O)O)C[C@@H]3c3ccccc3)s2)CC1 [Example 2-3, 4-[5-((1S,2R)-1-carboxy-2-phenyl-cyclopropanesulfamoyl)-thiophene-2-yl]-3,6-dihydro-2H-pyridin-1-carboxylic acid methyl ester]
